For experiment [1], the system named is Mycobacterium tuberculosis. Kind of experiment: Antimycobacterial activity against Mycobacterium tuberculosis H37Rv by agar dilution method. It counts as functional. Background: In agar dilution, organisms are placed on agar that contains the substance at set levels.
Another experiment deals with Vero. Briefly: Cytotoxicity against Vero cell line upto 62.5 ug/ml after 72 hrs by MTT assay. The settings on record: Chlorocebus sabaeus. Format: functional, cell-based. A general note: Tetrazolium dyes change colour on reduction, which living cells bring about.

Values after ≈ are worked out from the molar mass of the structure shown.

MIC and Activity data for twelve molecules are collected here from ChEMBL document CHEMBL1146010, “Synthesis and in vitro antimycobacterial activity of N1-nicotinoyl-3-(4'-hydroxy-3'-methyl phenyl)-5-[(sub)phenyl]-2-pyrazolines” (2006).

What is called MIC is the lowest concentration found to suppress growth. The low end stands for a more susceptible organism, the high end for a less susceptible organism.

Take `Cc1cc(C2=NN(C(=O)c3ccncc3)C(c3ccccc3Cl)C2)ccc1O` (stereo not given): it took 0.26 µM (≈ 0.102 µg/mL) to inhibit growth in experiment [1] (MIC). Also, in the experiment with Vero, the Activity entry is “Not toxic”.
In turn, `Cc1cc(C2=NN(C(=O)c3ccncc3)C(c3ccc(Cl)cc3)C2)ccc1O` (stereo not given) came in with an MIC in experiment [1] of 1.99 µM (≈ 0.78 µg/mL).
Regarding `Cc1cc(C2=NN(C(=O)c3ccncc3)C(c3ccco3)C2)ccc1O` (stereo not given), the minimal inhibitory concentration (MIC) in experiment [1] was 0.58 µM (≈ 0.201 µg/mL).
Still for that read-out and setting: the same measure for `Cc1cc(C2=NN(C(=O)c3ccncc3)C(c3cccc([N+](=O)[O-])c3)C2)ccc1O` (stereo not given): 15.5 µM (≈ 6.25 µg/mL); for `Cc1cc(C2=NN(C(=O)c3ccncc3)C(c3ccccc3)C2)ccc1O` (stereo not given): 8.73 µM (≈ 3.12 µg/mL); for `COc1ccc(C2CC(c3ccc(O)c(C)c3)=NN2C(=O)c2ccncc2)cc1` (stereo not given): 16.1 µM (≈ 6.25 µg/mL).
On the same count and under the same terms, for `NNC(=O)c1ccncc1` [ISONIAZID] the value was 0.73 µM (≈ 0.1 µg/mL); for `Cc1cc(C2=NN(C(=O)c3ccncc3)C(c3ccc(N(C)C)cc3)C2)ccc1O` (stereo not given), 1.95 µM (≈ 0.781 µg/mL); for `COc1ccc(C2CC(c3ccc(O)c(C)c3)=NN2C(=O)c2ccncc2)c(OC)c1OC` (stereo not given), 3.93 µM (≈ 1.76 µg/mL).
For the molecule `Cc1cc(C2=NN(C(=O)c3ccncc3)C(c3ccc(F)cc3)C2)ccc1O` (stereo not given), in experiment [1], the MIC worked out at 0.27 µM (≈ 0.101 µg/mL). Also, in the experiment with Vero, the Activity result was “Not toxic”.
Regarding `COc1ccc(C2CC(c3ccc(O)c(C)c3)=NN2C(=O)c2ccncc2)cc1OC` (stereo not given), the MIC in experiment [1] is 1.87 µM (≈ 0.781 µg/mL).
With `Cc1cc(C2=NN(C(=O)c3ccncc3)C(c3c(Cl)cccc3Cl)C2)ccc1O` (stereo not given), the MIC in experiment [1] is 0.47 µM (≈ 0.2 µg/mL). Moreover, the Activity result in the experiment with Vero was “Not toxic”.
